Reference: PMC6821791, “Phase I Trial of Pyragrel, a Novel Thromboxane Synthetase Inhibitor, to Evaluate the Safety, Tolerability, and Pharmacokinetics in Healthy Volunteers” (Frontiers in Pharmacology, 2019)
Several values for one entry are separate records, joined by “and”; a condition that tells them apart may be missing. Equal entries are not always repeated.

Legend:
[1] = Preliminary pharmacodynamic studies of the metabolites; settings: data not shown
Description: Based on the pharmacological activity, the pharmacokinetic characteristics of the metabolites were evaluated in the study.

[2] = system: urinary 11-D-HTXB2 (indicator of TXA2 production); test: Urinary 11-D-HTXB2 production by ELISA (Part IV); assay type: in vivo, human; settings: for Urinary 11-D-HTXB2 (standardized by urine creatinine): Part IV
Description: […] […] Production of 11-dehydro-thrombxane B2 (11-D-HTXB2) in urine sample was detected by ELISA method.
(§1) The vital signs were analyzed by repeated measures analysis of variance (ANOVA), and laboratory indexes were analyzed by the paired t-test and one-way ANOVA. Comparison within different dose regimens of pyragrel or among different treatments (pyragrel, ozagrel, and placebo) or production of urinary 11-D-HTXB2 among groups was performed with the t-test, and expected values were considered along with the actual situation. Descriptive methods were used to compare the incidence of AE between pyragrel and ozagrel/placebo or in different pyragrel dose regimens; the normal/abnormal changes in laboratory examinations before and after administration were described.
Given that 11-dehydrothromboxane B2 (11-D-HTXB2) is considered a reliable indicator of TXA2 production in humans and several animal models ([Morio et al., 1993]; [Yamanaka et al., 1993]), we preliminarily measured the production of urinary 11-D-HTXB2 as a maker for evaluating the TXA2 inhibition activity of pyragrel in three dose groups (60, 120, or 240 mg) in Part IV. […] ( Table 9 ).

[3] = Safety assessment, adverse event monitoring (Parts I-V); assay type: in vivo, human
Description: Safety was assessed using subject interviews and adverse event (AE) monitoring. All subjects received laboratory examinations after termination of drug infusion for 48 or 72 h; the examination items are the same as those listed in the screening process. If clinical abnormalities were present, further follow-ups were required until the laboratory test values or vital sign levels of the abnormal items returned to normal values or stable levels. The clinical significance of abnormal laboratory test values was determined by the physicians.
as §1

[4] = system: platelet agglutination inducted by adenosine diphosphate (ADP) and arachidonic acid (AA); test: Platelet agglutination inducted by ADP and AA (Part IV); assay type: in vivo, human; settings: single 3 h infusion of pyragrel 60, 120 or 240 mg, data not shown
Description: (§2) Urinary levels of 11-D-HTXB2, the degree of platelet agglutination inhibition (DPAI), and the plasma levels of TXB2 and 6-keto-PG1α are considered effective indicators to confirm the antithrombotic effect of a drug candidate ([Uyama et al., 1985]; [Morio et al., 1993]). Therefore, we determined the inhibitory effect of pyragrel on all these three markers in Part IV after a single 3 h infusion dose of pyragrel (60, 120, or 240 mg). […] Similarly, the plasma levels of TXB2 and 6-keto-PG1α (stable metabolites of TXA2 and PGI2, respectively) were determined by ELISA since the decreased TXB2/6-keto- PG1α ratio indicates platelet aggregation and thrombosis inhibition ([Mizugaki et al., 1999]). […] Actually, levels of plasma TXB2 and 6-keto-PG1α are different between patients with cerebral ischemic and healthy subjects; with the limitation of small size for pharmacodynamic activity evaluation in the study, plus the significant reduction in urinary 11-D-HTXB2 level here, we recommended that a larger sample size, extensive phase II study should be performed in patients to further study the pharmacodynamic characteristic of pyragrel.

[5] = system: plasma TXB2 and 6-keto-PG1α; test: Plasma TXB2 and 6-keto-PG1α by ELISA (Part IV); assay type: in vivo, human; settings: pyragrel 60, 120, 240 mg single i.v. dose; data not shown
Description: as §2

[6] = mice, daily 36 mg/kg injections for 4 days, cited from earlier work
focal cerebral ischemia = settings: cited from earlier work
[7] = system: human umbilical vein endothelial cells (HUVEC); settings: in vitro; cited from earlier work
[8] = dog, in vivo; cited from earlier work
[9] = Part II, pyragrel 240 mg in 250 ml saline
[10] = Part III, multiple doses of pyragrel 180 mg
[11] = Part IV, pyragrel 60, 120, 240 mg crossover
[12] = Part V, pyragrel 360 mg in 24 h

Compound: COc1cc(CCC(=O)O)ccc1OCc1nc(C)c(C)nc1C [BBS]
- Antiplatelet and antithrombotic effects [1]: weak

Compound: COc1cc(C=CC(=O)[O-])ccc1OCc1nc(C)c(C)nc1C.[Na+] [Pyragrel, sodium pyragrel]
- Duration of the inhibitory effect on 11-D-HTXB2 production ([2]; 120- and 240-mg group, P<0.05 vs preadministration): at least 12 h
- Urinary 11-D-HTXB2 (standardized by urine creatinine) ([2]; 60 mg/kg group, 0–3 h after administration): 37.83 ± 4.85 pg/mL
- Urinary 11-D-HTXB2 (standardized by urine creatinine) ([2]; 60 mg/kg group, 3–4 h after administration): 36.64 ± 4.15 pg/mL
- Urinary 11-D-HTXB2 (standardized by urine creatinine) ([2]; 60 mg/kg group, 4–8 h after administration): 35.05 ± 4.51 pg/mL
- Urinary 11-D-HTXB2 (standardized by urine creatinine) ([2]; 60 mg/kg group, 8–12 h after administration, 60 mg/kg): 34.77 pg/mL and 34.77 ± 4.16 pg/mL
- Urinary 11-D-HTXB2 (standardized by urine creatinine) ([2]; 60 mg/kg group, 12–24 h after administration, 60 mg/kg): 35.17 pg/mL and 35.17 ± 4.63 pg/mL
- Urinary 11-D-HTXB2 (standardized by urine creatinine) ([2]; 120 mg/kg group, 0–3 h after administration): 37.06 ± 5.00 pg/mL
- Urinary 11-D-HTXB2 (standardized by urine creatinine) ([2]; 120 mg/kg group, 3–4 h after administration): 35.85 ± 4.40 pg/mL
- Urinary 11-D-HTXB2 (standardized by urine creatinine) ([2]; 120 mg/kg group, 4–8 h after administration): 33.03 ± 5.00 pg/mL
- Urinary 11-D-HTXB2 (standardized by urine creatinine) ([2]; 120 mg/kg group, 8–12 h after administration): 31.45 ± 4.88 pg/mL
- Urinary 11-D-HTXB2 (standardized by urine creatinine) ([2]; 120 mg/kg group, 12–24 h after administration): 32.14 ± 5.17 pg/mL
- Urinary 11-D-HTXB2 (standardized by urine creatinine) ([2]; 240 mg group, 0–3 h after administration): 36.40 ± 4.68 pg/mL
- Urinary 11-D-HTXB2 (standardized by urine creatinine) ([2]; 240 mg group, 3–4 h after administration): 35.37 ± 4.60 pg/mL
- Urinary 11-D-HTXB2 (standardized by urine creatinine) ([2]; 240 mg group, 4–8 h after administration): 33.10 ± 4.31 pg/mL
- Urinary 11-D-HTXB2 (standardized by urine creatinine) ([2]; 240 mg group, 8–12 h after administration, 240 mg/kg): 30.72 pg/mL and 30.72 ± 4.38 pg/mL
- Urinary 11-D-HTXB2 (standardized by urine creatinine) ([2]; 240 mg group, 12–24 h after administration, 240 mg/kg): 31.37 pg/mL and 31.37 ± 3.79 pg/mL
- Production of urinary 11-D-HTXB2, effect in words ([2]; single infusion of pyragrel 60, 120 or 240 mg): time- and dose-dependently inhibited
- AE incidence rate (IR) ([3]; Part I, 36 pyragrel-treated subjects, 8 subjects of ozagrel treatment): 33.3%
- AE Type ([3]; Part I, pyragrel 30 mg): DB elevation, palpitation
- Number of AEs ([3]; Part I, pyragrel 30 mg): 2
- AE Type ([3]; Part I, pyragrel 60 mg): Leucocytes increase, positive urine protein
- Number of AEs ([3]; Part I, pyragrel 60 mg): 2
- AE Type ([3]; Part I, pyragrel 120 mg): DB elevation
- Number of AEs ([3]; Part I, pyragrel 120 mg): 1
- AE Type ([3]; Part I, pyragrel 180 mg): DB elevation (2), ventosity
- Number of AEs ([3]; Part I, pyragrel 180 mg): 3
- AE Type ([3]; Part I, pyragrel 240 mg): APTT extension
- Number of AEs ([3]; Part I, pyragrel 240 mg): 2
- AE Type ([3]; Part I, pyragrel 300 mg): Lower hemoglobin, total bile acid increase
- Number of AEs ([3]; Part I, pyragrel 300 mg): 2
- AE Type [3, 9]: DB/TB elevation
- Number of AEs [3, 9]: 2
- AE incidence rate (IR) ([3]; Part II, pyragrel 240 mg in 250 ml saline, 2/4): 50%
- AE Type [3, 10]: DB/TB elevation, alanine aminotransferase elevated, abdominal pain, headache, low blood potassium, urine frequency, fecal OBT+.
- Number of AEs [3, 10]: 12
- AE Type [3, 11]: Dizziness, TB/DB elevation, transient left tinnitus, double upper arm papules, fatigue
- Number of AEs [3, 11]: 8
- AE incidence ([3]; Part V, continuous infusion, 1/4): 25.0%
- AE Type [3, 12]: DB elevation
- Number of AEs [3, 12]: 1
- Severe AEs, in words ([3]; Parts I-V): No severe AEs occurred
- Number of AEs ([3]; Total, Parts I-V): 35
- Incidence of elevation in conjugated bilirubin (DB elevation) ([3]; all parts, 12/68 subjects of pyragrel, 2/8 subjects of ozagrel): 17.6%
- Tolerability, in words ([3]; single i.v. infusion up to 300 mg, multiple dose 180 mg, prolonged infusion 360 mg within 24 h): well tolerated
- Platelet agglutination inducted by ADP and AA [4]: slightly inhibited
- Plasma 6-keto-PG1α [5]: increase
- Plasma TXB2 [5]: decreased
- Bleeding time, lower than with ozagrel ([6]; P < 0.01): 35%
- Prolongation of coagulation time, pyragrel vs ozagrel [6]: comparable
- Effect against focal cerebral ischemic injury and focal cerebral ischemia-reperfusion (focal cerebral ischemia; rat models of focal cerebral ischemia, ref Wang and Wu, 2014): markedly protective effects
- Nerve function (focal cerebral ischemia; rats with focal cerebral ischemia-reperfusion injury, continuous infusion of pyragrel for 7 days): significant improvements
- Effect against inflammatory induced HUVEC injury [7]: significant protective effects
- Maximum safe dose [8]: > 12.5 mg/kg/day
